Measurements: patent publication US20160220587A1, “VITAMIN D COMPLEXES WITH DE-VDBP AND AN UNSATURATED FATTY ACID, AND THEIR USE IN THERAPY” (priority 2013, published 2016)
Where no end group is shown, it is not given here.

How the values were obtained:
VDBP = biological target: T1, VDBP (Homo sapiens, UniProt P02774); conditions: relative to vitamin D3; Am J Kidney Dis, 1998; 32:S25-39; cited from earlier work
T1 sequence (P02774 17-474): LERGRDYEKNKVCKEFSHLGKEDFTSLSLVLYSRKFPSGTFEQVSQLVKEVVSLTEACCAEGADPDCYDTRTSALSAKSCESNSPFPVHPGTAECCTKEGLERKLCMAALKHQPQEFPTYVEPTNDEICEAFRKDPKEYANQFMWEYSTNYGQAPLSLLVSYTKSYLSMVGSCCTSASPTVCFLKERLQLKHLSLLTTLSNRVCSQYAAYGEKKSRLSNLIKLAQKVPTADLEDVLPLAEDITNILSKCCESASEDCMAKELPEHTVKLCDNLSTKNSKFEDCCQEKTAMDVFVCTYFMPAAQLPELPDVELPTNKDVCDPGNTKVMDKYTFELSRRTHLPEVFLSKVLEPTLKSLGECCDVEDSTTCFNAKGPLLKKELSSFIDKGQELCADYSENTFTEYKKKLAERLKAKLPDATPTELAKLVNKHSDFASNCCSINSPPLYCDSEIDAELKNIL

[1] = test system: MCF-7 human breast cancer cell; assay: MCF-7 cell proliferation (Calbiochem Rapid Cell Proliferation Kit); assay type: cell-based; conditions: for Absorbance units (×10^3), cell proliferation: control (no addition) 450 ± 21
Protocol: The biological activity of the molecules and the multimolecular complexes described in the preceding sections was tested in an in vitro system (MCF-7 human breast cancer cell cultures) that is routinely used to assess the biological activity of vitamin D3 and of the other components of the vitamin D axis (Evid Based Complement Alternat Med. 2012; 2012:310872. Oncol Rep. 2012 December; 28(6):2131-7. Anticancer Res. 2012 March; 32(3):739-46). Human breast carcinoma cells MCF-7 were challenged with different concentration of vitamin D3, de-VDBP, and [vitamin D3/de-VDBP/oleic acid]. […] The same level of inhibition, however, could be achieved with 1000 fold less vitamin D3 when it was complexed with de-VDBP and oleic acid.

For `C=C1/C(=C\C=C2/CCC[C@]3(C)[C@@H]([C@H](C)OCCC(C)(C)O)CC[C@@H]23)C[C@@H](O)C[C@@H]1O` [22-oxacalcitriol], the VDBP affinity (VDBP) is given as “low”.

For `[2H]C([2H])=C1/C(=C([2H])\C=C2/CCC[C@]3(C)[C@@H]([C@H](C)CCCC(C)(C)O)CC[C@@H]23)C[C@@H](O)C[C@@H]1O` [Vitamin D3, 1α,25-Dihydroxyvitamin D3 (6,19,19-d3)], the “Absorbance units (×10^3), cell proliferation” value (shortened to “Absorbance units”) ([1]; Vitamin D3 1 nM) was 425 ± 10 Absorbance units (×10^3), the “Absorbance units” value ([1]; Vitamin D3 1 uM) was 55 ± 10 Absorbance units (×10^3) and the “Concentration giving maximal inhibition of MCF-7 proliferation” value ([1]; very high, non-physiological concentration) was 1 µM.

For `C=C1/C(=C\C=C2/CCC[C@]3(C)[C@@H]([C@H](C)/C=C/[C@@H](O)C4CC4)CC[C@@H]23)C[C@@H](O)C[C@@H]1O` [calcipotriene], the VDBP affinity (VDBP) is listed as “low”.

In the case of “de-VDBP: vitamin D binding protein de-glycosylated at position Thr 420 by sequential removal of sialic acid and galactose (DSTTCFNAKGPLLKKELSSFIDKGQELC; cysteine pairing not given here; also: de-glycosylated at Thr 420 by removal of sialic acid and galactose; listed as Homo sapiens)”, the “Absorbance units” value ([1]; de-VDBP 1 ng/ml) is reported as 395 ± 37 Absorbance units (×10^3).

B1: [Vitamin D3 1 nM/de-VDBP 1 ng/ml/oleic acid 1/1]: trimeric complex of vitamin D3 and oleic acid bound to de-VDBP via hydrophobic interactions (protein, UniProt P02774 17-474, looked up)
Vitamin D-binding protein: T1 sequence (P02774 17-474)
modifications: deglycosylated; vitamin D3 and oleic acid bound
For B1, the “Absorbance units” value ([1]; Vitamin D3 1 nM / de-VDBP 1 ng/ml / oleic acid ratio 1/1) was 55 ± 9 Absorbance units (×10^3) and the “Fold less vitamin D3 needed for the same level of inhibition” value ([1]; versus 1 uM vitamin D3 alone) was 1000 fold.
